Measurements published in paper doi:10.1101/637801v3 (biorxiv, 2019).

Key:
[1] = molecular target: rPtxS1 (recombinant pertussis toxin S1 subunit, wild type) (Bordetella pertussis, UniProt P04977); experiment: fluorometric NAD+ consumption assay; type: biochemical
[2] = molecular target: pertussis AB5 holotoxin (PtxS1-S5) (Bordetella pertussis, UniProt P04977); experiment: cell-based
Sequence of pertussis AB5 holotoxin (PtxS1-S5) (P04977 whole entry, looked up): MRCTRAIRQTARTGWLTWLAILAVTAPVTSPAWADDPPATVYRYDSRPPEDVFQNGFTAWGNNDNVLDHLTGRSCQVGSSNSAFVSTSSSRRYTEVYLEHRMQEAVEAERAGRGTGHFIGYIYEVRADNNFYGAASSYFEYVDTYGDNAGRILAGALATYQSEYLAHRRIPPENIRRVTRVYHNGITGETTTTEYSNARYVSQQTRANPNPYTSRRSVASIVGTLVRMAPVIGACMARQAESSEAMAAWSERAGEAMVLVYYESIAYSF

Sequence of rPtxS1 (recombinant pertussis toxin S1 subunit, wild type) (P04977 35-221 limits assumed): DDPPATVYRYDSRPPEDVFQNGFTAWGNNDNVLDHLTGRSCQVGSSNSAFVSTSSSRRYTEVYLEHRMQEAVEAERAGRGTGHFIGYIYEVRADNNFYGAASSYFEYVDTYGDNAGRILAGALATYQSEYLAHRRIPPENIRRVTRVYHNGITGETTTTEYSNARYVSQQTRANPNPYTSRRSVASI

SMILES | IC50 [1] [µM] | IC50 [2] [µM]
O=C(/C=C/c1cccnc1)/C=C/c1cccnc1 [NSC149286] | 20 | 
O=[N+]([O-])c1ccc(Sc2cccc[n+]2[O-])c2nonc12 [NSC228155, 7-nitro-4-(1-oxidopyridin-1-ium-2-yl)sulfanyl-2,1,3-benzoxadiazole] | 3 | 2.35
Sc1nc2c[nH]c(S)nc-2n1 [NSC29193, purine-2,8-dithiol] | 6.8 | 
